Assay results reported in patent publication US5773239A, “Mannosidase inhibitors, process for their preparation and their use as therapeutic agents” (Mount Sinai Hospital Corporation., priority 1995, dated 1998).

Biological target: T1, rat liver Golgi α-mannosidase II (Rattus norvegicus, UniProt P28494)
T1 construct: The assay for rat liver Golgi α-mannosidase II; from tissue; host or cells: rat liver (Golgi)
T1 sequence (P28494 1-1148): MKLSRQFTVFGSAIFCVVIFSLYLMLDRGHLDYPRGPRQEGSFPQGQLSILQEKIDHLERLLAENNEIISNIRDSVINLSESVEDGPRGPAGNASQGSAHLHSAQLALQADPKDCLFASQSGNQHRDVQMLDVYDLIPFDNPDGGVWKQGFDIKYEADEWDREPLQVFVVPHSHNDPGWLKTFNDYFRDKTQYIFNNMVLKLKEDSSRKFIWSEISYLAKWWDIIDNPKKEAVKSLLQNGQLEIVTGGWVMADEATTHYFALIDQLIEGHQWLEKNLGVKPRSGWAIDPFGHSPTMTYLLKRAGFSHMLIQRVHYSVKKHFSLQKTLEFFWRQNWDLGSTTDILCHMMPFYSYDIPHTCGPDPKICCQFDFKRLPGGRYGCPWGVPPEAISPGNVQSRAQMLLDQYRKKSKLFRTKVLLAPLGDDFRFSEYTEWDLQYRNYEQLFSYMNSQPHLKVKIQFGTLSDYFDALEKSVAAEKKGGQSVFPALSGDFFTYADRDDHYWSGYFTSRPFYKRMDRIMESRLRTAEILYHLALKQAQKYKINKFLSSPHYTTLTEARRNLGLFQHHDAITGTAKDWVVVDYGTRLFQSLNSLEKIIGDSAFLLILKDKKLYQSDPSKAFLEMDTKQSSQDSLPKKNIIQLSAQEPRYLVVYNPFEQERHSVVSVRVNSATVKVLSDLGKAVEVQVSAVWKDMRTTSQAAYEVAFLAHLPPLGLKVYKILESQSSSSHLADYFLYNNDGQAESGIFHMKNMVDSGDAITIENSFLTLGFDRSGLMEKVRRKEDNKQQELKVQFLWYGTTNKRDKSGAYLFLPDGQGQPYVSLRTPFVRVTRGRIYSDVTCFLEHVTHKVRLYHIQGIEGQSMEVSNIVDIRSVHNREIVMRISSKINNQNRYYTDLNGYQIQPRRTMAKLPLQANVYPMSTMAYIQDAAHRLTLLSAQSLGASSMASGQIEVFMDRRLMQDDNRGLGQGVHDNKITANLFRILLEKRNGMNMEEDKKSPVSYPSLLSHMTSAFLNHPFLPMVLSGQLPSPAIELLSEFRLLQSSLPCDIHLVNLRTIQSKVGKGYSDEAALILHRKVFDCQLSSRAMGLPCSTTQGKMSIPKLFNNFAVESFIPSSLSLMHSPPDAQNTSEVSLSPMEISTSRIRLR
Assay: Rat liver Golgi α-mannosidase II assay
Format: biochemical
Details: para-nitrophenyl α-mannose, pH 5.6; read-out: IC50 ManII
Protocol: The assay for rat liver Golgi α-mannosidase II contained 5 mM para-nitrophenylα-mannose, 40 mM sodium acetate pH 5.6, plus serially diluted test compouunds and mannosidase enzyme in a total volume of 50 ul, in 96 well plates. Plates were incubated 45 min at 37° C., then the reaction was stopped with 50 μl of 0.5M sodium carbonate. […] The lysosomal mannosidase was done in the same procedure but with 40 mM sodium acetate buffer pH 5.0. The numbers in the table are IC50 values in μM for inhibition of mannosidase activity.

Q: `O[C@H]1[C@H]2[C@H](O)CCCN2C[C@H]1O` [SW, Swainsonine, reference compound] was tested. Which IC50 did it give?
A: 100 nM
